From publication PMC10166855, “Tau activation of microglial cGAS–IFN reduces MEF2C-mediated cognitive resilience” (Nature neuroscience, 2023)

Biological target: human cGAS (cyclic GMP–AMP synthase) (Homo sapiens, UniProt Q8N884)
Assay: cell-free cGAS activity assay, ATP depletion by Kinase-Glo luminescence
Assay type: biochemical
From the text: cell-free cGAS activity assay, ATP depletion by Kinase-Glo luminescence on human cGAS (cyclic GMP–AMP synthase) | Dose-dependent inhibition of cGAS activity (as measured in a) in response to HT-DNA.

Chain of human cGAS (cyclic GMP–AMP synthase) (Q8N884 whole entry): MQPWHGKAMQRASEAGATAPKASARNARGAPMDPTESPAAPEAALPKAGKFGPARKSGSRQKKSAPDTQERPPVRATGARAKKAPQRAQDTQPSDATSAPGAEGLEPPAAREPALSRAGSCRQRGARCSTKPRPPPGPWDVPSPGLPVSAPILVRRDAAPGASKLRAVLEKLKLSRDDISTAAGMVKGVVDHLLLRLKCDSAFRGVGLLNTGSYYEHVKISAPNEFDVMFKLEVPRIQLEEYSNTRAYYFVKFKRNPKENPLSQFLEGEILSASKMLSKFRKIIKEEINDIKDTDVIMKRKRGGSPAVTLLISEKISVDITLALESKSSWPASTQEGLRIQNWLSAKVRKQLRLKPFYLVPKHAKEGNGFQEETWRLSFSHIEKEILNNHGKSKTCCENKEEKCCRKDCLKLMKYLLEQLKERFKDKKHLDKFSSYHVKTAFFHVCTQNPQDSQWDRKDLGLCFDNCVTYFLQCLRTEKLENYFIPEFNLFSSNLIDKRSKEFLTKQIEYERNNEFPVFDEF

IC50: 81.2 nM
Substance: TDI-8246
